Results: patent US6521627B1, “5-Iodo-4-phenethylaminopyrimidine derivative, intermediate thereof, processes for producing the same and agricultural and horticultural pesticides” (UBE Industries, Ltd., priority 1998, dated 2003)

Legend:
[1] = system: diamondback moth; assay: Test of effect on diamondback moth; assay type: in vivo, diamondback moths (3rd instar larvae); settings: wettable powder diluted to 300 ppm; cabbage leaves dipped for 30 seconds; 25° C., after 2 days
Description: (3) Test of effect on diamondback moth The respective wettable powders of Compounds (1) shown in Table 2 prepared as in Example 3 were diluted to 300 ppm with water containing a surfactant (0.01%), and in these respective chemical solutions, cabbage leaves (5×5 cm) were dipped for 30 seconds, and each leaf was put into the respective plastic cups and air-dried. Subsequently, 10 diamondback moths (3rd instar larvae) were placed in the respective cups, and put the lids on them and they were left to stand in a thermostat chamber at 25° C., and after 2 days, insecticidal rate was determined by counting living and dead insects in the respective cups.

[2] = system: brown rice planthopper; assay: Test of effect on brown rice planthopper; assay type: in vivo, brown rice planthoppers (4th instar larvae); settings: wettable powder diluted to 300 ppm; young seedlings of rice dipped for 30 seconds; 25° C., after 4 days
Description: (§1) (4) Test of effect on brown rice planthopper The respective wettable powders of Compounds (1) shown in Table 2 prepared as in Example 3 were diluted to 300 ppm with water containing a surfactant (0.01%), and in these respective chemical solutions, young seedlings of rice were dipped for 30 seconds, and after air-drying, each was put into the respective glass cylinders. Subsequently, 10 brown rice planthoppers (4th instar larvae) were placed in the respective glass cylinders, and porous stoppers were each placed on them and they were left to stand in a thermostat chamber at 25° C., and after 4 days, insecticidal rate was determined by counting living and dead insects in the respective cylinders.

[3] = system: southern root knot nematodes; assay: Test of effect on southern root knot nematodes; assay type: in vivo, southern potato root knot nematodes; settings: wettable powder diluted to 300 ppm, 0.1 ml plus 0.9 ml solution containing 500 nematodes; 25° C., after 2 days
Description: (1) Test of effect on southern root knot nematodes The respective wettable powders of Compounds (1) shown in Table 2 prepared as in Example 3 were diluted to 300 ppm with water, 0.1 ml of which is taken into the test tubes, and 0.9 ml of a solution containing 500 southern potato root knot nematodes was added thereto, respectively. Subsequently, these test tubes were left to stand in a thermostat chamber at 25° C., and after 2 days, nematodecidal rate was determined by observing with microscope.

[4] = system: green rice leafhopper; assay: Test of effect on green rice leafhopper; assay type: in vivo, green rice leafhoppers (4th instar larvae); settings: wettable powder diluted to 300 ppm; young seedlings of rice dipped for 30 seconds; 25° C., after 4 days
Description: as §1, with “(5)” for “(4)”, “green” for “brown”, “leafhopper” for “planthopper”, “leafhoppers” for “planthoppers”

[5] = system: tobacco cutworm; assay: Test of effect on tobacco cutworm; assay type: in vivo, tobacco cutworm (2nd instar larvae); settings: wettable powder diluted to 500 ppm; soybean leaves dipped for 30 seconds; 25° C., after 2 days
Description: (6) Test of effect on tobacco cutworm The respective wettable powders of Compounds (1) shown in Table 2 prepared as in Example 3 were diluted to 500 ppm with water containing a surfactant (0.01%), and in these respective chemical solutions, leave of soybean were dipped for 30 seconds. After air-drying, each of the leave was put into the respective plastic cups, 10 tobacco cutworm (2nd instar larvae) were placed in the respective cups, and put the lids on them and they were left to stand in a thermostat chamber at 25° C. After 2 days, insecticidal rate was determined by counting living and dead insects in the respective cups.

| Compound | insecticidal effect (insecticidal rate) [1] [%] | insecticidal effect (insecticidal rate) [2] [%] | nematodecidal effect (nematodecidal rate) [3] [%] | insecticidal effect (insecticidal rate) [4] [%] | insecticidal effect (insecticidal rate) [5] [%] | melting point [°C] |
| --- | --- | --- | --- | --- | --- | --- |
| CC(=O)OC(C)c1ncnc(NCCc2ccccc2)c1I (stereo not drawn) [Compound 1-(3), 6-(l-acetoxyethyl)-5-iodo-4-(2-phenylethylamino)pyrimidine] | 100 |  |  |  |  |  |
| CC(F)c1ncnc(NCCc2ccc(OC(F)(F)F)cc2)c1I (centres unmarked) [1-(23), 6-(1-fluoroethyl)-5-iodo-4-[2-(4-trifluoromethoxyphenyl)ethylamino]pyrimidine] | 100 | 100 | 100 | 100 | 100 |  |
| CC(F)c1ncnc(NCCc2ccccc2)c1I (centres unmarked) [Compound 1-(1), 6-(1-fluoroethyl)-5-iodo-4-(2-phenylethylamino)pyrimidine] | 100 | 100 | 100 | 100 |  |  |
| CC(F)c1ncnc(NCCc2ccc(F)cc2)c1I (centres unmarked) [Compound 1-(5), 6-(1-fluoroethyl)-5-iodo-4-[2-(4-fluorophenyl)ethylamino]pyrimidine] | 100 | 100 | 100 | 100 | 100 |  |
| CC(=O)OC(C)c1ncnc(NCCc2ccc(OC(F)(F)F)cc2)c1I (centres unmarked) [1-(21), 6-(1-acetoxyethyl)-5-iodo-4-[2-(4-trifluoromethoxyphenyl)ethylamino]pyrimidine] |  |  |  |  |  | 77 to 79 |
| CC(Cl)c1ncnc(NCCc2ccccc2)c1I (centres unmarked) [Compound 1-(2), 6-(1-chloroethyl)-5-iodo-4-(2-phenylethylamino)pyrimidine] |  |  |  |  |  | 101 to 102 |
